Data taken from patent US20190216751A1, “Compositions and Methods for the Treatment and Prevention of Cancer” (California State University Northridge, priority 2017, published 2019).

Tested on: E-cadherin in 4T1 cells
Assay: Western blot E-cadherin, TGFβ-induced EMT
Format: cell-based, mouse
Conditions: 10 μM each drug, re-treated with TGFβ 2.5 ng/mL at 48 hours, 96-hour time point
Method: Next, the inventors investigated whether blockade of HDAC6 and DHPS activity could further suppress TGFβ-induced EMT either independently or simultaneously. To test this, 4T1 cells were treated with either TubA at 10 μM, GC7 at 10 μM or both for 48 hours. At this time point, protein lysates were collected as well as phase-contrast images (FIGS. 6B and 6C). At that same time point, the media was changed and the cells were re-treated with the same drugs at the same concentrations; however, this time with the addition of TGFβ at 2.5 ng/mL. The inventors collected protein lysates and phase-contrast images just one day post TGFβ treatment, calling this the 72-hour time point (FIGS. 6B and 6C). In addition, the inventors collected mRNA, protein lysates, phase-contrast and immunofluorescences images two days post TGFβ treatment, calling this the 96-hour time point (FIGS. 6A, 6B, 6C and 6D).
Cell lines were plated in a 6 well plate at 1e5 cells/mL and left to attach overnight. Cells were then treated if necessary then lysed using Radioimmunoprecipitation assay (RIPA) buffer containing phosphatase and protease inhibitors and left to rotate at 4° C. for at least 3 hours. Lysates were then cleared by centrifugation at 12,000 RPM for 10 minutes at 4° C. Protein concentrations were determined using Bradford Assay. […] Band intensity graphs were quantified using Fiji software after image thresholding.

## N=C(N)NCCCCCCCN.O=S(=O)(O)O [GC7, N1-Guanyl-1,7-diaminoheptane]
  TGFβ-induced EMT, E-cadherin protein expression: dramatically increased
